Reference: patent publication EP0902002A1, “New derivatives of phthalaldehyde, process for their preparation and their use” (Hoechst Marion Roussel Deutschland GmbH, priority 1997, dated 1999)

Assay: Physicochemical properties: solubility and pH stability

- Löslichkeit (in Alkoholen und anderen polaren organischen Lösungsmitteln): lösliche
- Stabilität (in neutralem und mild saurem Milieu (vorzugsweise > pH 2)): stabil
- Stabilität (in stark alkalischer Lösung (beispielsweise > pH 8)): unbeständig
Compound: CC(CCc1c(O)cc(C=O)c(C=O)c1O)C(=O)O (stereo not drawn) [Hericenal C]
